In PubChem BioAssay (NCI):
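48-hour exposure; five concentrations; linearly interpolated endpoints. At the TGI there is no net growth.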

What was measured:
Assay in all cases: NCI tumour cell line growth inhibition, 48 h
SK-MEL-28 melanoma = tested on: SK-MEL-28 melanoma
RXF 393 renal = tested on: RXF 393 renal
HCT-15 colon = tested on: HCT-15 colon
NCI-H226 lung = tested on: NCI-H226 lung
NCI/ADR-RES ovarian = tested on: NCI/ADR-RES ovarian
NCI-H460 lung = tested on: NCI-H460 lung
OVCAR-8 ovarian = tested on: OVCAR-8 ovarian
U251 CNS = tested on: U251 CNS
SF-295 CNS = tested on: SF-295 CNS
HOP-92 NSCLC = tested on: HOP-92 NSCLC
T-47D breast = tested on: T-47D breast
CCRF-CEM leukemia = tested on: CCRF-CEM leukemia
A549 NSCLC = tested on: A549 NSCLC
PC-3 prostate = tested on: PC-3 prostate
UO-31 renal = tested on: UO-31 renal
786-0 renal = tested on: 786-0 renal
MDA-N = tested on: MDA-N
MDA-MB-435 = tested on: MDA-MB-435
HL-60(TB) leukemia = tested on: HL-60(TB) leukemia
MDA-MB-231 breast = tested on: MDA-MB-231 breast
SNB-19 CNS = tested on: SNB-19 CNS
SK-OV-3 ovarian = tested on: SK-OV-3 ovarian
SF-539 CNS = tested on: SF-539 CNS
K-562 leukemia = tested on: K-562 leukemia
TK-10 renal = tested on: TK-10 renal
COLO 205 colon = tested on: COLO 205 colon
LOX IMVI melanoma = tested on: LOX IMVI melanoma
SN12C renal = tested on: SN12C renal
MCF7 breast = tested on: MCF7 breast
SW-620 colon = tested on: SW-620 colon
MOLT-4 leukemia = tested on: MOLT-4 leukemia
HOP-62 NSCLC = tested on: HOP-62 NSCLC
A498 renal = tested on: A498 renal
NCI-H23 lung = tested on: NCI-H23 lung
HT29 colon = tested on: HT29 colon
UACC-257 melanoma = tested on: UACC-257 melanoma
EKVX NSCLC = tested on: EKVX NSCLC
ACHN renal = tested on: ACHN renal
HS 578T breast = tested on: HS 578T breast
OVCAR-3 ovarian = tested on: OVCAR-3 ovarian
SK-MEL-2 melanoma = tested on: SK-MEL-2 melanoma
SNB-75 CNS = tested on: SNB-75 CNS
RPMI-8226 leukemia = tested on: RPMI-8226 leukemia
HCT-116 colon = tested on: HCT-116 colon
SR leukemia = tested on: SR leukemia
CAKI-1 renal = tested on: CAKI-1 renal
NCI-H522 lung = tested on: NCI-H522 lung
OVCAR-5 ovarian = tested on: OVCAR-5 ovarian
KM12 colon = tested on: KM12 colon
OVCAR-4 ovarian = tested on: OVCAR-4 ovarian
IGROV1 ovarian = tested on: IGROV1 ovarian
M14 melanoma = tested on: M14 melanoma
HCC-2998 colon = tested on: HCC-2998 colon
DU-145 prostate = tested on: DU-145 prostate
MALME-3M melanoma = tested on: MALME-3M melanoma
BT-549 breast = tested on: BT-549 breast
SF-268 CNS = tested on: SF-268 CNS
SK-MEL-5 melanoma = tested on: SK-MEL-5 melanoma
UACC-62 melanoma = tested on: UACC-62 melanoma

Measured: TGI

CC1(C)OCC(C2OC3OC(C)(C)OC3C2N)O1 (stereo not drawn)
> 100 µM: all assays above

O=C(O)c1ccc(C(=O)Nc2cccc3ccccc23)c(C(=O)O)c1
> 100 µM: all assays above
